Results: ChEMBL document CHEMBL4765401, “Synthesis, and biological evaluation of 3,6-diaryl-[1,2,4]triazolo[4,3-a]pyridine analogues as new potent tubulin polymerization inhibitors” (Eur J Med Chem, 2020)
pIC50: −log10 of the molar value. Activity calls are given as the source filed them. The rule behind the calls is not given here.

Key:
HeLa [1] = assay: Antiproliferative activity against human HeLa cells measured after 48 hrs by MTT assay; format: functional, cell-based
MCF7 = assay: Antiproliferative activity against human MCF7 cells measured after 48 hrs by MTT assay; format: functional, cell-based; conditions: MCF7, 48 h
[2] = Inhibition of pig brain tubulin polymerization measured at 1 min interval for 20 mins by spectrophotometric method; parameters: species or system Sus scrofa
A549 = assay: Antiproliferative activity against human A549 cells measured after 48 hrs by MTT assay; format: functional, cell-based; conditions: A549, 48 h
T47D = assay: Antiproliferative activity against human T47D cells measured after 48 hrs by MTT assay; format: functional, cell-based
Sus scrofa = organism: Sus scrofa; assay: Inhibition of pig brain tubulin polymerization at 10 uM measured at 1 min interval for 20 mins by spectrophotometric method relative to control
HEK293 = assay: Cytotoxicity against HEK293 cells measured after 48 hrs by MTT assay; format: cell-based; conditions: Homo sapiens, HEK293, 48 h
HeLa [3] = assay: Cell cycle arrest in human HeLa cells assessed as accumulation at S phase at 48 nM measured after 24 hrs by propidium iodide staining based flow cytometry (reference value: 19.78%); format: functional
HeLa [4] = assay: Cell cycle arrest in human HeLa cells assessed as accumulation at G0/G1 phase at 12 nM measured after 24 hrs by propidium iodide staining based flow cytometry (reference value: 69.08%); format: functional
HeLa [5] = assay: Induction of apoptosis in human HeLa cells assessed as necrotic cells at 24 nM measured after 24 hrs by Annexin V-FITC/propidium iodide staining based flow cytometry (reference value: 0.048%); format: functional
HeLa [6] = assay: Induction of apoptosis in human HeLa cells assessed as early apoptotic cells at 12 nM measured after 24 hrs by Annexin V-FITC/propidium iodide staining based flow cytometry (reference value: 3.97%); format: functional
HeLa [7] = assay: Cell cycle arrest in human HeLa cells assessed as accumulation at S phase at 24 nM measured after 24 hrs by propidium iodide staining based flow cytometry (reference value: 19.78%); format: functional
HeLa [8] = assay: Induction of apoptosis in human HeLa cells assessed as down regulation of Bcl-2 expression at 12 to 48 nM measured after 24 hrs by Western blot analysis; format: functional, cell-based; conditions: dose 12-48 nM
HeLa [9] = assay: Induction of microtubule disruption in human HeLa cells at 12 nM measured after 6 hrs by DAPI staining based immunofluorescence microscopy; format: cell-based
HeLa [10] = assay: Induction of apoptosis in human HeLa cells assessed as necrotic cells at 12 nM measured after 24 hrs by Annexin V-FITC/propidium iodide staining based flow cytometry (reference value: 0.048%); format: functional
HeLa [11] = assay: Cell cycle arrest in human HeLa cells assessed as accumulation at G0/G1 phase at 48 nM measured after 24 hrs by propidium iodide staining based flow cytometry (reference value: 69.08%); format: functional
HeLa [12] = assay: Induction of apoptosis in human HeLa cells assessed as viable cells at 12 nM measured after 24 hrs by Annexin V-FITC/propidium iodide staining based flow cytometry (reference value: 93.6%); format: functional; conditions: read-out: Activity
HeLa [13] = assay: Cell cycle arrest in human HeLa cells assessed as accumulation at G2M phase at 24 nM measured after 24 hrs by propidium iodide staining based flow cytometry (reference value: 11.14%); format: functional
HeLa [14] = assay: Cell cycle arrest in human HeLa cells assessed as decrease in cdc2 expression measured after 24 hrs by Western blot analysis; format: functional, cell-based
HeLa [15] = assay: Induction of apoptosis in human HeLa cells assessed as late apoptotic cells at 24 nM measured after 24 hrs by Annexin V-FITC/propidium iodide staining based flow cytometry (reference value: 2.34%); format: functional
HeLa [16] = assay: Induction of apoptosis in human HeLa cells assessed as late apoptotic cells at 12 nM measured after 24 hrs by Annexin V-FITC/propidium iodide staining based flow cytometry (reference value: 2.34%); format: functional
HeLa [17] = assay: Cell cycle arrest in human HeLa cells assessed as increase in accumulation at G2M phase measured after 24 hrs by propidium iodide staining based flow cytometry; format: functional
HeLa [18] = assay: Cell cycle arrest in human HeLa cells assessed as decrease in cyclin B1 expression measured after 24 hrs by Western blot analysis; format: functional, cell-based
HeLa [19] = assay: Induction of apoptosis in human HeLa cells assessed as viable cells at 24 nM measured after 24 hrs by Annexin V-FITC/propidium iodide staining based flow cytometry (reference value: 93.6%); format: functional; conditions: read-out: Activity
HeLa [20] = assay: Induction of apoptosis in human HeLa cells assessed as necrotic cells at 48 nM measured after 24 hrs by Annexin V-FITC/propidium iodide staining based flow cytometry (reference value: 0.048%); format: functional
HeLa [21] = assay: Cell cycle arrest in human HeLa cells assessed as accumulation at G2M phase at 12 nM measured after 24 hrs by propidium iodide staining based flow cytometry (reference value: 11.14%); format: functional
HeLa [22] = assay: Induction of apoptosis in human HeLa cells assessed as late apoptotic cells at 48 nM measured after 24 hrs by Annexin V-FITC/propidium iodide staining based flow cytometry (reference value: 2.34%); format: functional
HeLa [23] = assay: Cell cycle arrest in human HeLa cells assessed as accumulation at G0/G1 phase at 24 nM measured after 24 hrs by propidium iodide staining based flow cytometry (reference value: 69.08%); format: functional
HeLa [24] = assay: Induction of apoptosis in human HeLa cells measured after 24 hrs by Annexin V-FITC/propidium iodide staining based flow cytometry; format: functional, cell-based
HeLa [25] = assay: Cell cycle arrest in human HeLa cells assessed as accumulation at G2M phase at 48 nM measured after 24 hrs by propidium iodide staining based flow cytometry (reference value: 11.14%); format: functional
HeLa [26] = assay: Induction of apoptosis in human HeLa cells assessed as increase in PARP cleavage measured after 24 hrs by Western blot analysis; format: functional, cell-based
HeLa [27] = assay: Induction of apoptosis in human HeLa cells assessed as viable cells at 48 nM measured after 24 hrs by Annexin V-FITC/propidium iodide staining based flow cytometry (reference value: 93.6%); format: functional; conditions: read-out: Activity
HeLa [28] = assay: Induction of apoptosis in human HeLa cells assessed as early apoptotic cells at 24 nM measured after 24 hrs by Annexin V-FITC/propidium iodide staining based flow cytometry (reference value: 3.97%); format: functional
HeLa [29] = assay: Induction of apoptosis in human HeLa cells assessed as early apoptotic cells at 48 nM measured after 24 hrs by Annexin V-FITC/propidium iodide staining based flow cytometry (reference value: 3.97%); format: functional
HeLa [30] = assay: Cell cycle arrest in human HeLa cells assessed as accumulation at S phase at 12 nM measured after 24 hrs by propidium iodide staining based flow cytometry (reference value: 19.78%); format: functional

COc1cc(-c2ccc3nnc(-c4ccc(Cl)c(Cl)c4)n3c2)cc(OC)c1OC
pIC50 (HeLa [1]): < 4.60

COc1cc(-c2ccc3nnc(-c4ccc(C)cc4)n3c2)cc(OC)c1OC
pIC50 (HeLa [1]): < 4.60

COc1ccc(-c2ccc3nnc(-c4cc(OC)c(OC)c(OC)c4)n3c2)c(OC)c1
pIC50 (HeLa [1]): 5.10

COc1cc(-c2ccc3nnc(-c4ccc(F)cc4)n3c2)cc(OC)c1OC
pIC50 (HeLa [1]): < 4.60

COc1cc(-c2nnc3ccc(-c4ccccc4OC(F)(F)F)cn23)cc(OC)c1OC
pIC50 (HeLa [1]): 4.65

COc1cc(-c2nnc3ccc(-c4ccc5ccccc5c4)cn23)cc(OC)c1OC
pIC50 (HeLa [1]): < 4.60

COc1ccc(-c2nnc3ccc(-c4cc(OC)c(OC)c(OC)c4)cn23)cc1
pIC50 (HeLa [1]): < 4.60

COc1cc(-c2ccc3nnc(-c4ccc(Cl)cc4)n3c2)cc(OC)c1OC
pIC50 (HeLa [1]): < 4.60

COc1ccc(-c2nnc3ccc(-c4cc(OC)c(OC)c(OC)c4)cn23)cc1[N+](=O)[O-]
pIC50 (HeLa [1]): < 4.60

COc1ccc(-c2ccc3nnc(-c4cc(OC)c(OC)c(OC)c4)n3c2)cc1OC
pIC50 (MCF7): < 4.00
pIC50 (HeLa [1]): 6.92
pIC50 [2]: 4.95
pIC50 (A549): 4.06
pIC50 (T47D): < 4.00
inhibition (Sus scrofa): 68%

COc1cc(-c2nnc3ccc(-c4ccc(Cl)c(Cl)c4)cn23)cc(OC)c1OC
pIC50 (HeLa [1]): 6.46

COc1cc(-c2nnc3ccc(-c4ccc(F)cc4)cn23)cc(OC)c1OC
pIC50 (MCF7): < 4.00
pIC50 (HeLa [1]): 7.60
pIC50 (HEK293): < 4.00
pIC50 (A549): 4.10
pIC50 (T47D): 4.12
inhibition (Sus scrofa): 18%

COc1ccc(-c2nnc3ccc(-c4cc(OC)c(OC)c(OC)c4)cn23)cc1N
pIC50 (HeLa [1]): 5.40

COc1cc(-c2nnc3ccc(-c4ccc([N+](=O)[O-])cc4)cn23)cc(OC)c1OC
pIC50 (HeLa [1]): 7.64
pIC50 (HEK293): < 4.00

COc1cc(-c2nnc3ccc(-c4cccnc4OC)cn23)cc(OC)c1OC
pIC50 (HeLa [1]): 4.69

COc1ccc(-c2ccc3nnc(-c4cc(OC)c(OC)c(OC)c4)n3c2)cc1N
Activity (HeLa [3]): 5.22%
Activity (HeLa [4]): 64.07%
Activity (HeLa [5]): 0.373%
Activity (HeLa [6]): 5.21%
Activity (HeLa [7]): 22.41%
Activity (HeLa [8]): Active
Activity (HeLa [9]): Active
pIC50 (MCF7): 4.39
Activity (HeLa [10]): 0.139%
Activity (HeLa [11]): 2.13%
viability at 0.012 µM (HeLa [12]): 91.4%
pIC50 (HeLa [1]): 7.92
Activity (HeLa [13]): 26%
Activity (HeLa [14]): Dose-dependent effect
pIC50 (HEK293): < 4.00
Activity (HeLa [15]): 7.97%
Activity (HeLa [16]): 3.23%
Activity (HeLa [17]): Dose-dependent effect
pIC50 [2]: 5.47
Activity (HeLa [18]): Dose-dependent effect
viability at 0.024 µM (HeLa [19]): 72.8%
Activity (HeLa [20]): 0.922%
Activity (HeLa [21]): 13.9%
pIC50 (A549): 4.98
pIC50 (T47D): 4.55
Activity (HeLa [22]): 16.9%
Activity (HeLa [23]): 51.59%
Activity (HeLa [24]): Dose-dependent effect
Activity (HeLa [25]): 92.65%
Activity (HeLa [26]): Dose-dependent effect
viability at 0.048 µM (HeLa [27]): 45.8%
inhibition (Sus scrofa): 81%
Activity (HeLa [28]): 18.9%
Activity (HeLa [29]): 36.4%
Activity (HeLa [30]): 22.03%
